Reference: patent US20060154923A1, “N-phenyl-3-cyclopropylpyrazole-4-carbonitriles as ectoparasiticidal agents” (priority 2002, published 2006)
Like-named read-outs stand apart in the source and are kept apart here.

Tests used:
Assay type in all cases: in vivo
[1] = tested on: Ctenocephatides felis, adult cat fleas; assay: Contact activity against adult cat fleas, coated glass vial assay
Procedure: Evaluation of the Efficacy of Test Compounds Against Adult Cat Fleas
(§1) The contact activity of a test compound against Ctenocephatides felis, adult cat fleas, is evaluated in a coated, glass vial assay. In this evaluation, a solution of test compound in acetone is allowed to dry on the interior surface of a 20 mL vial. Ten unfed adult cat fleas are added to the treated vial and mortality is assessed periodically for up to 48 h. All treatments are replicated 2 times. The data are averaged.

[2] = tested on: Rhipacephalus sanguineus, adult ticks; assay: Contact activity against adult ticks, coated glass vial assay
Procedure: Evaluation of the Efficacy of Test Compounds Against Adult Ticks
as §1, with “Rhipacephalus sanguineus,” for “Ctenocephatides felis,”, “ticks,” for “cat fleas,”, “coated” for “coated,”, “Five” for “Ten”, “ticks” for “cat fleas”

[3] = tested on: newly emerged larvae of Lucilia sericata, blowfly; assay: Efficacy against blowfly larvae, treated paper/serum bioassay; settings: for % Mortality 24 h / % Mortality 48 h: blowfly larvae; for mortality at 0.2 ppm / mortality at 2 ppm / mortality at 20 ppm: Lucilia sericata
Procedure: Evaluation of Efficacy of Test Compounds Against Blowfly Larvae
The efficacy of a test compound against newly emerged larvae of Lucilia sericata, blowfly, is evaluated using a treated paper/serum bioassay. In this evaluation, a solution of test compound in acetone is applied to a filter paper disc and the disc is allowed to dry. Bovine serum and about 20 newly emerged blowfly larvae are added to the treated paper disc and the mortality is assessed at 24 h and 48 h. The data are averaged.

[4] = 24 h, read-out: % Mortality 24 h
[5] = 48 h, read-out: % Mortality 48 h

SMILES	% Mortality 4 h ([1]; Conc. 2 ug/cm2, 4 h) [%]	% Mortality 24 h ([1]; Conc. 2 ug/cm2, 24 h) [%]	% Mortality 4 h ([2]; Conc. 0.78 ug/cm2, 4 h) [%]	% Mortality 24 h ([2]; Conc. 0.78 ug/cm2, 24 h) [%]	% Mortality 4 h ([2]; Conc. 7.80 ug/cm2, 4 h) [%]	% Mortality 24 h ([2]; Conc. 7.80 ug/cm2, 24 h) [%]	% Mortality 24 h ([3]; Conc. 0.2 ppm, 24 h) [%]	% Mortality 48 h ([3]; Conc. 0.2 ppm, 48 h) [%]	% Mortality 24 h ([3]; Conc. 2.0 ppm, 24 h) [%]	% Mortality 48 h ([3]; Conc. 2.0 ppm, 48 h) [%]	% Mortality 24 h ([3]; Conc. 20.0 ppm, 24 h) [%]	% Mortality 48 h ([3]; Conc. 20.0 ppm, 48 h) [%]	also measured
CC1(c2nn(-c3c(Cl)cc(C(F)(F)F)cc3Cl)c(Cl)c2C#N)CC1(Br)Br (centres unmarked) [Example 20]	20	100	0	20	20	50	0	0	100	100	100	100	–
CC1(c2nn(-c3c(Cl)cc(C(F)(F)F)cc3Cl)c(N)c2C#N)CC1(Br)Br (centres unmarked) [Example 21]	0	0	10	10	0	40	0	0	95	100	90	100	–
CC1(c2nn(-c3c(Cl)cc(C(F)(F)F)cc3Cl)c(Br)c2C#N)CC1(Br)Br (centres unmarked) [Example 22]	0	100	20	30	0	60	0	0	100	100	100	100	–
CC1(c2nn(-c3c(Cl)cc(C(F)(F)F)cc3Cl)c(Br)c2C#N)CC1(Cl)Cl (centres unmarked) [Example 29]	50	100	0	40	20	60	15	15	100	100	100	100	% Mortality 4 h ([1]; Conc. 0.02 ug/cm2, 4 h): 10%; % Mortality 24 h ([1]; Conc. 0.02 ug/cm2, 24 h): 100%; % Mortality 4 h ([1]; Conc. 0.2 ug/cm2, 4 h): 20%; % Mortality 24 h ([1]; Conc. 0.2 ug/cm2, 24 h): 100%
CC1(c2nn(-c3c(Cl)cc(C(F)(F)F)cc3Cl)c(I)c2C#N)CC1(Cl)Cl (centres unmarked) [Example 31]	20	100	10	20	50	50	0	0	95	100	97	100	–
CN(C)c1c(C#N)c(C2(C)CC2(Cl)Cl)nn1-c1c(Cl)cc(C(F)(F)F)cc1Cl (centres unmarked) [Example 32]	0	100	0	60	0	30	0	0	0	0	91	96	–
N#Cc1nn(-c2c(Cl)cc(C(F)(F)F)cc2Cl)c(N)c1[S+]([O-])C(F)(F)F (centres unmarked) [Standard, Fipronil, reference compound]	30	100	90	100	100	100	–	–	–	–	–	–	% Mortality 4 h ([1]; Conc. 0.02 ug/cm2, 4 h): 0%; % Mortality 24 h ([1]; Conc. 0.02 ug/cm2, 24 h): 100%; % Mortality 4 h ([1]; Conc. 0.2 ug/cm2, 4 h): 10%; % Mortality 24 h ([1]; Conc. 0.2 ug/cm2, 24 h): 100%; mortality at 0.2 ppm [3, 4]: 0%; mortality at 2 ppm [3, 4]: 100%; mortality at 20 ppm [3, 4]: 100%; mortality at 0.2 ppm [3, 5]: 100%; mortality at 2 ppm [3, 5]: 100%; mortality at 20 ppm [3, 5]: 100%
